The source made the active and inactive calls.
Tests used:
[1] = molecular target: T1, Histone-lysine N-methyltransferase NSD2 (Homo sapiens, UniProt O96028); type: biochemical
T1 sequence (O96028 whole entry): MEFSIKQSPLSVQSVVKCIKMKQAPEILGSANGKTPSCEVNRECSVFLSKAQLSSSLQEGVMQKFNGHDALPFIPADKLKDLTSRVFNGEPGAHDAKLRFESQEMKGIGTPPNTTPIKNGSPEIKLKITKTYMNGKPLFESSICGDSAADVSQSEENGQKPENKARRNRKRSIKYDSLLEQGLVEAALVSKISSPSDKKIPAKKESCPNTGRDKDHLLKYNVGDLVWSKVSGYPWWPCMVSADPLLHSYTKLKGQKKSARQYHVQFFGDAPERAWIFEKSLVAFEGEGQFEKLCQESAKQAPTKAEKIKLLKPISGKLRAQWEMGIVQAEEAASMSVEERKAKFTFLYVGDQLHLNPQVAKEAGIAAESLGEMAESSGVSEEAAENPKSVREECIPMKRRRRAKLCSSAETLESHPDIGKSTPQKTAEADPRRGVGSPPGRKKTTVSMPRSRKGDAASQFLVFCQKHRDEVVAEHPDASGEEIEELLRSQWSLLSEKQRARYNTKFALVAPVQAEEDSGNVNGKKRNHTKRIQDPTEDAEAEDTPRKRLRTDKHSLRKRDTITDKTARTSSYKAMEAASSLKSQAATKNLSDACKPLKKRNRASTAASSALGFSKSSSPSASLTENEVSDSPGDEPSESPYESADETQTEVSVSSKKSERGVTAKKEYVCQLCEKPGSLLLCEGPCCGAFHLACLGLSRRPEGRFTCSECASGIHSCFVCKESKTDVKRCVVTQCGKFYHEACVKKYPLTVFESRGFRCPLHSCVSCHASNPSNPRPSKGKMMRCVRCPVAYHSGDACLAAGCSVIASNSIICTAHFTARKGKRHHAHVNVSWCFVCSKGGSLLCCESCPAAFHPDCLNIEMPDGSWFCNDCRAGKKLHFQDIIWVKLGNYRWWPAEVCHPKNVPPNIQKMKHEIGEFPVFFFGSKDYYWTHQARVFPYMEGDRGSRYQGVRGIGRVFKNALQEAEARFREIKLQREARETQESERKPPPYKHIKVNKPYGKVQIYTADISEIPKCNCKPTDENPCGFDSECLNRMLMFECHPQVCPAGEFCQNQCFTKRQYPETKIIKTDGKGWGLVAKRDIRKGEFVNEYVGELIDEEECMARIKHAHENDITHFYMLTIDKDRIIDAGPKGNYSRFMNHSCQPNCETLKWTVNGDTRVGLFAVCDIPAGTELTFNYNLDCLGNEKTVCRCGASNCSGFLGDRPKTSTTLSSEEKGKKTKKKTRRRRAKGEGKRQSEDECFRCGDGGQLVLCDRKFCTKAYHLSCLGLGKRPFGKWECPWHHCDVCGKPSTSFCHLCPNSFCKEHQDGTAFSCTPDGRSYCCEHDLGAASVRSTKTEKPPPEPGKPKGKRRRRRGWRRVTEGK

[2] = molecular target: Ribosomal protein S6 kinase alpha-3 (Homo sapiens, UniProt P51812); type: functional;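 also: measured within a kinome-wide profiling panel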
[3] = molecular target: 5'-AMP-activated protein kinase catalytic subunit alpha-1 (Homo sapiens, UniProt Q13131); type: functional
[4] = molecular target: Tyrosine-protein kinase Lck (Homo sapiens, UniProt P06239); type: functional;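 also: lck was assayed as one member of a kinase panel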
Sequence of Tyrosine-protein kinase Lck (P06239 whole entry): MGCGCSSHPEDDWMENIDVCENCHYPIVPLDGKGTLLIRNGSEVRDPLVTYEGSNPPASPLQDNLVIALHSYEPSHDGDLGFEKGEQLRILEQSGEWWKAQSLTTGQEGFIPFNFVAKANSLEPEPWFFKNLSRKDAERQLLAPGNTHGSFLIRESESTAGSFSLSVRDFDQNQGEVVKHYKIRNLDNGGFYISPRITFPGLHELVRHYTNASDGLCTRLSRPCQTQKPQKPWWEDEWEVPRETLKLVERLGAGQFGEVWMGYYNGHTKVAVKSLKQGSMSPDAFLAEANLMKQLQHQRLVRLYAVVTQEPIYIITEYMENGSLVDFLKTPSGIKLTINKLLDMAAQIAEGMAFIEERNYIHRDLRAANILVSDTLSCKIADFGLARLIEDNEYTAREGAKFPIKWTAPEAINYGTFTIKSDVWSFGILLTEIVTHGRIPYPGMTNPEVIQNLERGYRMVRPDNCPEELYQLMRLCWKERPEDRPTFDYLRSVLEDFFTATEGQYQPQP

[5] = molecular target: Death-associated protein kinase 3 (Homo sapiens, UniProt O43293); type: functional;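 also: measured as one member of a kinome-wide profiling panel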
Sequence of Death-associated protein kinase 3 (O43293 whole entry): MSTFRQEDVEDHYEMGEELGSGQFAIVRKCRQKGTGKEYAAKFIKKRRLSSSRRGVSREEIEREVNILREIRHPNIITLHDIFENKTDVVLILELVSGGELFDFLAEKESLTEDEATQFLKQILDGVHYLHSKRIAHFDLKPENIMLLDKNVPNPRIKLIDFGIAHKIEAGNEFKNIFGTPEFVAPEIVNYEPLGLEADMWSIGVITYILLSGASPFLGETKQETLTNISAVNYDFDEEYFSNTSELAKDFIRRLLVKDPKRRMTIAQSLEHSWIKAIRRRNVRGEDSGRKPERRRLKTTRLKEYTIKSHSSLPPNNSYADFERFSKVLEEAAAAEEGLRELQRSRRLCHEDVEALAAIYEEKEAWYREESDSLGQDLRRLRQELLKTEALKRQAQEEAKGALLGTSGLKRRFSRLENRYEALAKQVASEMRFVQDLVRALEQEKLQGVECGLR

[6] = molecular target: Mitogen-activated protein kinase 8 (Homo sapiens, UniProt P45983); type: functional;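 also: value comes from one member of a kinome-wide kinase profiling panel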
[7] = molecular target: Serine/threonine-protein kinase pim-1 (Homo sapiens, UniProt P11309); type: functional
Aurora kinase A = Aurora kinase A (Homo sapiens, UniProt O14965); type: functional;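 also: value from the Navigating the Kinome kinase panel profiling, panel entry STK6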
[8] = molecular target: Fibroblast growth factor receptor 1 (Homo sapiens, UniProt P11362); type: functional
[9] = molecular target: Tyrosine-protein kinase JAK3 (Homo sapiens, UniProt P52333); type: functional
[10] = molecular target: Mitogen-activated protein kinase 9 (Homo sapiens, UniProt P45984); type: functional;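 also: value from a kinome panel profiling assay, MAPK9 panel entry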
Sequence of Mitogen-activated protein kinase 9 (P45984 whole entry, the tested form may be a part): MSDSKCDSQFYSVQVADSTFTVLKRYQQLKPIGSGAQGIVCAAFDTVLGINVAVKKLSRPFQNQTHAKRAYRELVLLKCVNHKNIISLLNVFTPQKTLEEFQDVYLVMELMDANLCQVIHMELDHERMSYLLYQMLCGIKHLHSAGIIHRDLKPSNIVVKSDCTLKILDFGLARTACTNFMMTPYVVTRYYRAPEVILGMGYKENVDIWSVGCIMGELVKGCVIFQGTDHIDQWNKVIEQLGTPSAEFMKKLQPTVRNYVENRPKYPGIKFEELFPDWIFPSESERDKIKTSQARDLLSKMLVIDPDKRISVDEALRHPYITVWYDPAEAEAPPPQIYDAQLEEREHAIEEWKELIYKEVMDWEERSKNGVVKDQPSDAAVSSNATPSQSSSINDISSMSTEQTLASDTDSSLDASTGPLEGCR

LIM domain kinase 1 = LIM domain kinase 1 (Homo sapiens, UniProt P53667); assay: Navigating the Kinome. Panel member name: LIMK1; type: functional
[11] = molecular target: Glycogen synthase kinase-3 alpha (Homo sapiens, UniProt P49840); type: functional;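 also: GSK3A result taken from a broad kinome-wide kinase panel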
[12] = molecular target: Hepatocyte growth factor receptor (Homo sapiens, UniProt P08581); type: functional;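 also: kinase panel profiling across the kinome, with MET as the panel member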
[13] = molecular target: Receptor-type tyrosine-protein kinase FLT3 (Homo sapiens, UniProt P36888); type: functional;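 also: FLT3 was tested as one member of a kinome-wide kinase panel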
Sequence of Receptor-type tyrosine-protein kinase FLT3 (P36888 whole entry): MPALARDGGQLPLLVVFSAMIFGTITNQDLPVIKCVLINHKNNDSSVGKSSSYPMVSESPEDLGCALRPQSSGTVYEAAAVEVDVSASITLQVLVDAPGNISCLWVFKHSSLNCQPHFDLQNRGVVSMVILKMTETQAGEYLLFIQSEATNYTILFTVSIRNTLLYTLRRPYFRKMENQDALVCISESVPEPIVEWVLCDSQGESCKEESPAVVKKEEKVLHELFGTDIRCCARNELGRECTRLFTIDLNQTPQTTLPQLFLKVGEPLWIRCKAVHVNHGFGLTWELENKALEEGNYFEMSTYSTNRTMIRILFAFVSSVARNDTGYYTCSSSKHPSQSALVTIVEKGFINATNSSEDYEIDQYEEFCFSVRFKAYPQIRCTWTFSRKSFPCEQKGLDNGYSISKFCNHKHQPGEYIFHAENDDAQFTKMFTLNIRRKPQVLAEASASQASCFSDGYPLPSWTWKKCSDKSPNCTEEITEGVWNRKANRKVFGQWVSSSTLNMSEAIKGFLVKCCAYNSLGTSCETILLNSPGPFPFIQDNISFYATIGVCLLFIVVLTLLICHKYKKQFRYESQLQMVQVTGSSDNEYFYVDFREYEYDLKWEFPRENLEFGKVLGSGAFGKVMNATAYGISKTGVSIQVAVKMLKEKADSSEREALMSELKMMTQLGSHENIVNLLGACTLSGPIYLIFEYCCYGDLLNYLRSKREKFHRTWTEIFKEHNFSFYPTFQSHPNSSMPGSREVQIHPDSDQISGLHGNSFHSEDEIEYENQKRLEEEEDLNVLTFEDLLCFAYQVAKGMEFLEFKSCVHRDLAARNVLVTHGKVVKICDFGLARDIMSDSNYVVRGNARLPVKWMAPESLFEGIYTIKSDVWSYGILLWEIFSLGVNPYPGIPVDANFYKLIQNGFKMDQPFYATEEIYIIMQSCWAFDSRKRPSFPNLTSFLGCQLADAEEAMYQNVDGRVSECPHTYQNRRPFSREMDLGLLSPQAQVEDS

[14] = molecular target: Serine/threonine-protein kinase Chk1 (Homo sapiens, UniProt O14757); type: functional;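 also: measured as one member of a kinome-wide kinase profiling panel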
Sequence of Serine/threonine-protein kinase Chk1 (O14757 whole entry): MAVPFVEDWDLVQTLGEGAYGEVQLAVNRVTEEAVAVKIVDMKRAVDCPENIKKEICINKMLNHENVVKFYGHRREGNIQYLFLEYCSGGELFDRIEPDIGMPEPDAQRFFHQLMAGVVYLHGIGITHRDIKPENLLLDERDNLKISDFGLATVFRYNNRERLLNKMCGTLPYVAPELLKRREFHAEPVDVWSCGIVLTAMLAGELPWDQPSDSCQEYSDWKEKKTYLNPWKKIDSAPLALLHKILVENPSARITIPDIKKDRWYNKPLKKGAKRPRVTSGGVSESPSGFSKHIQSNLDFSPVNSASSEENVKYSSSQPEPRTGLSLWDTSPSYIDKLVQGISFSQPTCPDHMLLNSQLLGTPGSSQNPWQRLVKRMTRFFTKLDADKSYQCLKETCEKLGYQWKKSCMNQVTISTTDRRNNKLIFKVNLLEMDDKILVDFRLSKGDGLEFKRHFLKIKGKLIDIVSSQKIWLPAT

[15] = molecular target: Tyrosine-protein kinase ABL1 (Homo sapiens, UniProt P00519); type: functional
Sequence of Tyrosine-protein kinase ABL1 (P00519 whole entry): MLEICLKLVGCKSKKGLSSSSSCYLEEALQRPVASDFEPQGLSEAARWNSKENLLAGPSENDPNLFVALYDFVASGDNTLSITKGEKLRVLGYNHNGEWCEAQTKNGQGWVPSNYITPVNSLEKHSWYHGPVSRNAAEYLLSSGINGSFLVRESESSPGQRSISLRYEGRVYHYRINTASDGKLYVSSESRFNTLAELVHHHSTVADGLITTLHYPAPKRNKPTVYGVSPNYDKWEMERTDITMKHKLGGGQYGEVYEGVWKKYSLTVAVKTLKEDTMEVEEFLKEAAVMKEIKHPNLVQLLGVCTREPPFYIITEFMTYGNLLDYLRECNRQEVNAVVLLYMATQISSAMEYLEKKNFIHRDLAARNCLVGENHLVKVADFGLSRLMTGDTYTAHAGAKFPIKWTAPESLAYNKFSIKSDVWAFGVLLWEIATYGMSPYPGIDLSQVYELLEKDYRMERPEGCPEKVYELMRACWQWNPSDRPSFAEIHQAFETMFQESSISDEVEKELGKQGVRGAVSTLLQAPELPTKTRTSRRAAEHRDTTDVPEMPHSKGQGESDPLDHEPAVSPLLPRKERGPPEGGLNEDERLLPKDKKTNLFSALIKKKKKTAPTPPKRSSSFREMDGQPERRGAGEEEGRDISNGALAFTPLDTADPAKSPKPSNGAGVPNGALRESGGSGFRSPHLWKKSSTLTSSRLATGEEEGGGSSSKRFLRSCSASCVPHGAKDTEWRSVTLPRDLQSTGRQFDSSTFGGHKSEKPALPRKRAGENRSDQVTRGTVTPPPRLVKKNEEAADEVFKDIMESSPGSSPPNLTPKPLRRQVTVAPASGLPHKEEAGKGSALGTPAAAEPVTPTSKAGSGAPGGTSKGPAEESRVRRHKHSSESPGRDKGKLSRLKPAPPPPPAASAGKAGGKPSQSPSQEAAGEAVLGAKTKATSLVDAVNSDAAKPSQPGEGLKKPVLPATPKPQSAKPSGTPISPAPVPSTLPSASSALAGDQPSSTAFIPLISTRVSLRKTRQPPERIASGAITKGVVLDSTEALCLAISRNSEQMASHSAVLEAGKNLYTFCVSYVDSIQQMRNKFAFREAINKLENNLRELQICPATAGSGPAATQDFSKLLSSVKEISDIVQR

[16] = molecular target: Vascular endothelial growth factor receptor 2 (Homo sapiens, UniProt P35968); type: functional
[17] = molecular target: Cyclin-dependent kinase 5 (Homo sapiens, UniProt Q00535); type: functional;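 also: CDK5 measured as one member of a kinase profiling panel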
[18] = molecular target: Insulin-like growth factor 1 receptor (Homo sapiens, UniProt P08069); assay: Navigating the Kinome. Panel member name: IGF1R; type: functional
Aurora kinase B = Aurora kinase B (Homo sapiens, UniProt Q96GD4); type: functional
[19] = molecular target: Rho-associated protein kinase 1 (Homo sapiens, UniProt Q13464); type: functional;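 also: measured within a broad kinome-wide panel profiling many kinases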
[20] = molecular target: Serine/threonine-protein kinase Nek2 (Homo sapiens, UniProt P51955); type: functional
[21] = molecular target: Vascular endothelial growth factor receptor 1 (Homo sapiens, UniProt P17948); type: functional;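 also: measured within a kinome-wide profiling panel, FLT1 as the panel member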
[22] = molecular target: Glycogen synthase kinase-3 beta (Homo sapiens, UniProt P49841); type: functional;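 also: value comes from a broad kinome profiling panel, with GSK3B as the panel member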
[23] = molecular target: BDNF/NT-3 growth factors receptor (Homo sapiens, UniProt Q16620); type: functional;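 also: NTRK2 measured as one member of a broad kinome-wide kinase profiling panel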
[24] = molecular target: Macrophage colony-stimulating factor 1 receptor (Homo sapiens, UniProt P07333); type: functional;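 also: value comes from the Navigating the Kinome screening panel, CSF1R member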
Sequence of Macrophage colony-stimulating factor 1 receptor (P07333 whole entry): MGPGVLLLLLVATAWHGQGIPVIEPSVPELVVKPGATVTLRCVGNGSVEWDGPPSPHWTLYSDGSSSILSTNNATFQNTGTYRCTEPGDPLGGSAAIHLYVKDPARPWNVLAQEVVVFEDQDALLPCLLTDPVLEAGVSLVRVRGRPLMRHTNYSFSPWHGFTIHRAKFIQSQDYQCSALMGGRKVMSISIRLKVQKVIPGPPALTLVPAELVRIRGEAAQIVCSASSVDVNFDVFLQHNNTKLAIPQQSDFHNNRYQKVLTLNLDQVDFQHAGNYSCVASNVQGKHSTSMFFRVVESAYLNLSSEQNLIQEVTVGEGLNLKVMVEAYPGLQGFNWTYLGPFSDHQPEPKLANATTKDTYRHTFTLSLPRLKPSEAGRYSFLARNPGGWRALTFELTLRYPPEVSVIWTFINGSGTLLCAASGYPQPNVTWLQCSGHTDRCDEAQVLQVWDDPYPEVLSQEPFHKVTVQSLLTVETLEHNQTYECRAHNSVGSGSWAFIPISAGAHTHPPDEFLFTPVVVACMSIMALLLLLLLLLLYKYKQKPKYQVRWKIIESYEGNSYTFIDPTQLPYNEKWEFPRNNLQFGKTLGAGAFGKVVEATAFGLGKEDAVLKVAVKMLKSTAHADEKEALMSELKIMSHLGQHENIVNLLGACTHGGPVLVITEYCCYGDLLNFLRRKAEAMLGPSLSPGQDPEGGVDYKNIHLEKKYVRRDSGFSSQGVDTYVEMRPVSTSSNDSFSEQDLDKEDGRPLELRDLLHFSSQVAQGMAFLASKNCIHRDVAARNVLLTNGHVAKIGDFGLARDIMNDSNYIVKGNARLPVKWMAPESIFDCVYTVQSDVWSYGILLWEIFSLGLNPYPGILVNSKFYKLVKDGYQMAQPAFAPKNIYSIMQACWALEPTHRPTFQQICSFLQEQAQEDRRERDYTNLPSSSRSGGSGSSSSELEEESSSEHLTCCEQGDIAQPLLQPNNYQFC

[25] = molecular target: Dual specificity tyrosine-phosphorylation-regulated kinase 1A (Homo sapiens, UniProt Q13627); type: functional;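 also: measured against DYRK1A as one member of a broad kinome profiling panel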

Ki [2] | Ki [3] | Ki [4] | Ki [6] | Ki [7] | Ki (Aurora kinase A) | Ki [8] | Ki [9] | Ki [10] | Ki (LIM domain kinase 1) | Ki [11] | Ki [12] | Ki [13] | Ki [14] | Ki [15] | Ki [16] | Ki [17] | Ki [18] | SMILES | AC50 [1] | Ki [5] | further results
 |  |  |  |  |  |  |  |  |  |  |  |  |  |  |  |  |  | O=C1C=C(NCc2ccccc2)c2ccccc2C1=O | 2.16 µM (active) |  | 
 |  |  |  |  |  |  |  |  |  |  |  |  |  |  |  |  |  | O=C(O)c1[nH]c2ccccc2c1C(c1cc(Cl)cc([N+](=O)[O-])c1O)c1c(C(=O)O)[nH]c2ccccc12 | 16.6 µM (active) |  | 
> 7.94 µM (inactive) | > 10 µM (inactive) | > 2.51 µM (inactive) | > 3.16 µM (inactive) | > 10 µM (inactive) | > 6.31 µM (inactive) | > 5.01 µM (inactive) | > 1.58 µM (inactive) | > 3.98 µM (inactive) | > 10 µM (inactive) | 7.94 µM (active) | > 3.16 µM (inactive) | > 2.51 µM (inactive) | > 7.94 µM (inactive) | > 0.631 µM (inactive) | > 7.94 µM (inactive) | 5.01 µM (active) | > 1 µM (inactive) | CCOC(=O)c1cn(-c2ccc(O)cc2C)c2cc(-c3ccncc3)ccc2c1=O |  | > 1.26 µM (inactive) | Ki (Aurora kinase B): > 6.31 µM (inactive); Ki [19]: 0.158 µM (active); Ki [20]: > 10 µM (inactive); Ki [21]: > 0.398 µM (inactive); Ki [22]: > 6.31 µM (inactive); Ki [23]: > 5.01 µM (inactive); Ki [24]: > 2.51 µM (inactive); Ki [25]: > 6.31 µM (inactive)
> 3.98 µM (inactive) | > 3.16 µM (inactive) | > 6.31 µM (inactive) | > 5.01 µM (inactive) | > 6.31 µM (inactive) | > 1.58 µM (inactive) | > 3.98 µM (inactive) | > 5.01 µM (inactive) | > 3.98 µM (inactive) | > 3.16 µM (inactive) | > 3.98 µM (inactive) | > 2.51 µM (inactive) | > 3.16 µM (inactive) | > 3.16 µM (inactive) | > 2.51 µM (inactive) | 0.316 µM (active) | > 3.16 µM (inactive) | > 2.51 µM (inactive) | Cc1cc(=O)[nH]nc1-c1ccc(NC(=O)Nc2cc(C(F)(F)F)ccc2F)c(Cl)c1 |  | > 5.01 µM (inactive) | Ki (Aurora kinase B): > 3.98 µM (inactive); Ki [19]: > 3.98 µM (inactive); Ki [20]: > 3.16 µM (inactive); Ki [21]: > 3.98 µM (inactive); Ki [22]: > 3.98 µM (inactive); Ki [23]: 0.01 µM (active); Ki [24]: > 2.51 µM (inactive); Ki [25]: > 2 µM (inactive)
